Reference: PubChem BioAssay AID1259246 (Broad Institute, 2017)
Inconclusive results are not listed. Active and inactive are the calls of the source.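 The calls were made as follows: active = valid dose-response fit whose half-maximal growth-inhibiting concentration is at or below a set limit above the top tested dose; inconclusive = flat fit with effect between 30 and 70%, or poor fit; inactive = half-maximal concentration above a set limit.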

Key:
[1] = antibacterial activity against Clostridioides difficile – 10-point retest, dose response (AID 1259246); conditions: Clostridioides difficile clinical isolate growth, OD600, 24 h
[2] = tested on: Clostridioides difficile clinical isolate growth, OD600, 24 h; experiment: as above

For O=C(NCC[C@@H]1CC[C@@H](NC(=O)C2CC2)[C@@H](CO)O1)Nc1ccc(C(F)(F)F)cc1, the activity change, negative = inhibition ([1]; at 120 µM (top of the series)) was 2.33% (inactive) and the IC50 [2] was 6.63 µM.

In the case of O=C(NCC[C@H]1CC[C@@H](NC(=O)C2CC2)[C@H](CO)O1)Nc1ccc(C(F)(F)F)cc1, the activity change, negative = inhibition ([1]; at 120 µM (top of the series)) is reported as -4.12% (inactive) and the IC50 [2] is reported as 13.5 µM.

With CC(C)Cc1ccc(CN2CC[C@@H](NS(=O)(=O)c3ccccc3)C2)cc1 the activity change, negative = inhibition ([1]; at 60 µM (top of the series)) was 4.46% (inactive) and the IC50 [2] was 56 µM.

With COc1cccc(C#Cc2ccc([C@H]3[C@@H](CO)N(C(=O)C4CCCCC4)[C@H]3C#N)cc2)c1 the activity change, negative = inhibition ([1]; at 75 µM (top of the series)) was 12.9% (inactive) and the IC50 [2] was 77.8 µM.
